We go through nine compounds from patent US9388142B2, “Quinazolinone derivatives as PARP inhibitors” (MERCK PATENT GMBH, priority 2012, dated 2016).

Each structure is given as a SMILES string. Structures can show the parent of a compound that is named as a salt. Where two headings read alike, the source gives them in different places.

The conditions of assay [1]: at 30 μM; cited from earlier work.
Assay [2] has as its target T1, GST-tagged Tankyrase-1 (1023-1327 aa) (Homo sapiens, UniProt O95271).
T1 construct: GST-tagged Tankyrase-1 (1023-1327 aa)
In words: biochemical. Particulars: read-out: IC50 tankyrase 1 (enzyme assay). The source says: (§1) aq (aqueous), h (hour), g (gram), L (liter), mg (milligram), MHz (Megahertz), min. (minute), mm (millimeter), mmol (millimole), mM (millimolar), m.p. (melting point), eq (equivalent), mL (milliliter), L (microliter), ACN (acetonitrile), AcOH (acetic acid), CDCl3 (deuterated chloroform), CD3OD (deuterated methanol), CH3CN (acetonitrile), c-hex (cyclohexane), DCC (dicyclohexyl carbodiimide), DCM (dichloromethane), DIC (diisopropyl carbodiimide), DIEA (diisopropylethyl-amine), DMF (dimethylformamide), DMSO (dimethylsulfoxide), DMSO-d6 (deuterated dimethylsulfoxide), EDC (1-(3-dimethyl-amino-propyl)-3-ethylcarbodiimide), ESI (Electro-spray ionization), EtOAc (ethyl acetate), Et2O (diethyl ether), EtOH (ethanol), HATU (dimethylamino-([1,2,3]triazolo[4,5-b]pyridin-3-yloxy)-methylene]-dimethylammonium hexafluorophosphate), HPLC (High Performance Liquid Chromatography), i-PrOH (2-propanol), K2CO3 (potassium carbonate), LC (Liquid Chromatography), MeOH (methanol), MgSO4 (magnesium sulfate), MS (mass spectrometry), MTBE (Methyl tert-butyl ether), NaHCO3 (sodium bicarbonate), NaBH4 (sodium borohydride), NMM (N-methyl morpholine), NMR (Nuclear Magnetic Resonance), PyBOP (benzotriazole-1-yl-oxy-trispyrrolidino-phosphonium hexafluorophosphate), RT (room temperature), Rt (retention time), SPE (solid phase extraction), TBTU (2-(1-H-benzotriazole-1-yl)-1,1,3,3-tetramethyluromium tetrafluoro borate), TEA (triethylamine), TFA (trifluoroacetic acid), THF (tetrahydrofuran), TLC (Thin Layer Chromatography), UV (Ultraviolet). Description of the In Vitro Assays Abbreviations: GST=Glutathione-S-transferase FRET=Fluorescence resonance energy transfer HTRF®=(homogenous time resolved fluorescence) HEPES=4-(2-hydroxyethyl)-1-piperazine ethanesulfonic acid buffer DTT=Dithiothreitol BSA=bovine serum albumin CHAPS=detergent; CHAPS=3[(3-cholamidopropyl)dimethylammonio]-1-propanesulfonate Streptavidin-XLent® is a high grade streptavidin-XL665 conjugate for which the coupling conditions have been optimized to yield a conjugate with enhanced performances for some assays, particularly those requiring high sensitivity.
(§2) The autoparsylation assay is run in two steps: the enzymatic reaction in which GST-tagged Tankyrase-1, resp Tankyrase-2 transferred biotinylated ADP-ribose to itself from biotinylated NAD as co-substrate and the detection reaction where a time resolved FRET between cryptate labelled anti-GST bound to the GST tag of the enzyme and Xlent® labelled-streptavidin bound the biotin-parsylation residue is analysed. The autoparsylation activity was detectable directly via the increase in HTRF signal.
(§3) The autoparsylation assay is performed as 384-well HTRF® (Cisbio, Codolet, France) assay format in Greiner low volume nb 384-well microtiter plates and is used for high throughput screen. […] The reaction is stopped by the addition of 1 μl 50 mM EDTA solution. […] The ratio of the emission signals is determined. The full value used is the inhibitor-free reaction. […] The inhibitory values (IC50) are determined using either the program Symyx Assay Explorer® or Condosseo® from GeneData.

The target of assay [3] is GST-tagged Tankyrase-2 (873-1166 aa) (Homo sapiens, UniProt Q9H2K2). Nature of the assay: biochemical.
Sequence of GST-tagged Tankyrase-2 (873-1166 aa) (Q9H2K2 873-1166): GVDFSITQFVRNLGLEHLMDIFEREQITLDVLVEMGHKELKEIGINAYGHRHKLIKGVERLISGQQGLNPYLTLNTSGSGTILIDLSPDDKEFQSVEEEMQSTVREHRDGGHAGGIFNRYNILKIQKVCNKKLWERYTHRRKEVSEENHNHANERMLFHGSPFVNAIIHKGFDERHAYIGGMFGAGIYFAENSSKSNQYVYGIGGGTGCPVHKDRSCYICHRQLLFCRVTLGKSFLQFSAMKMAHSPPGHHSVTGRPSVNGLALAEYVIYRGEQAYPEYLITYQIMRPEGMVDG
Description: as §1, §2, §3

Assay [4] addresses T2, His-tagged Parp-1 (Homo sapiens, UniProt P09874).
T2 construct: purchased Enzo Life Sciences GmbH, Lörrach, Germany
Nature of the assay: PARP-1 autoparsylation assay (HTRF). The format is biochemical. The source says: Description of the PARP1 Assay
Biochemical Activity Testing of PARP-1: Autoparsylation Assay
The autoparsylation assay is run in two steps: the enzymatic reaction in which His-tagged Parp-1 transfers biotinylated ADP-ribose/ADP-ribose to itself from biotinylated NAD/NAD as co-substrate and the detection reaction where a time resolved FRET between cryptate labelled anti-His antibody bound to the His tag of the enzyme and Xlent® labelled-streptavidin bound the biotin-parsylation residue is analysed. The autoparsylation activity is detectable directly via the increase in HTRF signal.
The autoparsylation assay is performed as 384-well HTRF® (Cisbio, Codolet, France) assay format in Greiner low volume nb 384-well microtiter plates. 35 nM His-tagged Parp-1 (human, recombinant, Enzo Life Sciences GmbH, Lörrach, Germany) and a mixture of 125 nM bio-NAD (Biolog, Life science Inst., Bremen, Germany) and 800 nM NAD as co-substrate are incubated in a total volume of 6 μl (100 mM Tris/HCl, 4 mM Mg-chloride, 0.01% IGEPAL® CA630, 1 mM DTT, 0.5% DMSO, pH 8, 13 ng/μl activated DNA (BPS Bioscience, San Diego, US)) in the absence or presence of the test compound (10 dilution concentrations) for 150 min at 23° C. The reaction is stopped by the addition of 4 μl of the Stop/detection solution (70 nM SA-Xlent® (Cisbio, Codolet, France), 2.5 nM Anti-His-K® (Eu-labelled anti-His, Cisbio, Codolet, France) in 50 mM HEPES, 400 mM KF, 0.1% BSA, 20 mM EDTA, pH 7.0). After 1 h incubation at room temperature the HTRF iss measured with an Envision multimode reader (Perkin Elmer LAS Germany GmbH) at excitation wavelength 340 nm (laser mode) and emission wavelengths 615 nm and 665 nm. The ratio of the emission signals is determined. The full value used is the inhibitor-free reaction. The pharmacological zero value used is Olaparib (LClabs, Woburn, US) in a final concentration of 1 The inhibitory values (IC50) are determined using either the program Symyx Assay Explorer® or Condosseo® from GeneData.
(Time-resolved FRET reads energy transfer from a long-lived donor to a nearby acceptor.)

Assay [5] addresses T3, GST-tagged Tnks-1 (1023-1327 aa) (Homo sapiens, UniProt O95271).
T3 construct: GST-tagged Tnks-1 (1023-1327 aa, prepared in-house); made in house
In words: TNKS1 activity ELISA (autoparsylation assay). The assay is classed as biochemical. How it is done:
(§4) Description of the TNKS1 and TNKS2 ELISA Assay
(§5) Then the activity assay with biotinylated NAD is performed in the absence/presence of the compounds. During the enzymatic reaction GST tagged TNKS transfers biotinylated ADP-ribose to itself from biotinylated NAD as co-substrate. For the detection streptavidin-HRP conjugate is added that binds to the biotinylated TNKS and is thereby captured to the plates. The amount of biotinylated resp. autoparsylated TNKS is detected with a luminescence substrate for HRP. The level of the luminescence signal correlates directly with the amount of autoparsylated TNKS and therefore with activity of TNKS.
(§6) The activity ELISA is performed in 384 well Glutathione coated microtiter plates (Express capture Glutathione coated plate, Biocat, Heidelberg, Germany). The plates are pre-equilibrated with PBS. […] The plates are washed 3 times with PBS-Tween-20. The wells are blocked by incubation at room temperature for 20 minutes with 50 μl blocking buffer (PBS, 0.05% Tween-20, 0.5% BSA). Afterwards the plates are washed 3 times with PBS-Tween-20. […] The reaction is stopped by 3 times washing with PBS-Tween-20. For the detection 50 μl of 20 ng/μl Streptavidin, HRP conjugate (MoBiTec, Gottingen, Germany) in PBS/0.05% Tween-20/0.01% BSA are added and the plates are incubated for 30 minutes at room temperature. After three times washing with PBS-Tween-20 50 μl of SuperSignal ELISA Femto Maximum sensitivity substrate solution (ThermoFisherScientific (Pierce), Bonn, Germany) are added. Following a 1 minute incubation at room temperature luminescence signals are measured with an Envision multimode reader (Perkin Elmer LAS Germany GmbH) at 700 nm. The full value used is the inhibitor-free reaction. […] The inhibitory values (IC50) are determined using either the program Symyx Assay Explorer® or Condosseo® from GeneData.
(In an ELISA, binding on a coated surface is turned into a signal by an enzyme label.)

The subject of assay [6] is tankyrase 1/2. Nature of the assay: Cellular inhibition of tankyrase: increase of Axin2 level in DLD1 cells (Luminex). The format is cell-based. Particulars: read-out: EC50 tankyrase 1/2 (cell assay), 24 hours. The procedure: Measurement of Cellular Inhibition of Tankyrase
Cells of the colon carcinoma cell line DLD1 are plated in 96 well plates with 1.5×10^4 cells per well. Next day, cells are treated with a serial dilution of test compound in seven steps as triplicates with a final DMSO concentration of 0.3%. After 24 hours, cells are lysed in lysis buffer (20 mM Tris/HCl pH 8.0, 150 mM NaCl, 1% NP40, 10% Glycerol) and lysates are cleared by centrifugation through a 96 well filter plate (0.65 μm). […] The amount of isolated Axin2 protein is determined in a Luminex^200 machine (Luminex Corporation) according to the manufacturer's instruction by counting 100 events per well. […] For analysis, the obtained data are normalized against the untreated solvent control and fitted for determination of the EC50 values using the Assay Explorer software (Accelrys).

Assay [7] concerns the target GST-tagged Tnks-2 (873-1166 aa) (Homo sapiens, UniProt Q9H2K2). Nature of the assay: biochemical. The procedure: as §4, §5, §6
For assay [8], the system named is DLD-1-cancer cells. Particulars: cited from earlier work.
Assay [9] has as its system β-catenin. Particulars: by increasing the levels of the AXIN1 and AXIN2 proteins; cited from earlier work.

T1 sequence (O95271 1023-1327): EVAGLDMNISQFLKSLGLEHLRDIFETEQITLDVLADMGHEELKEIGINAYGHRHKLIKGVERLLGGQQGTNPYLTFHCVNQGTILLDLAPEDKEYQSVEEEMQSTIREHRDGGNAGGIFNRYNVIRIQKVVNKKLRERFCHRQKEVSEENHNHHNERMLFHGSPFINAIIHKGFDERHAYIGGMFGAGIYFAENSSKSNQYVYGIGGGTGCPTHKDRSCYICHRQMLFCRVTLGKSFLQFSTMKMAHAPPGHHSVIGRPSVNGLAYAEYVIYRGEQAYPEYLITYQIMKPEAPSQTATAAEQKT
T3 sequence (O95271 1023-1327): as above
T2 sequence (P09874 whole entry): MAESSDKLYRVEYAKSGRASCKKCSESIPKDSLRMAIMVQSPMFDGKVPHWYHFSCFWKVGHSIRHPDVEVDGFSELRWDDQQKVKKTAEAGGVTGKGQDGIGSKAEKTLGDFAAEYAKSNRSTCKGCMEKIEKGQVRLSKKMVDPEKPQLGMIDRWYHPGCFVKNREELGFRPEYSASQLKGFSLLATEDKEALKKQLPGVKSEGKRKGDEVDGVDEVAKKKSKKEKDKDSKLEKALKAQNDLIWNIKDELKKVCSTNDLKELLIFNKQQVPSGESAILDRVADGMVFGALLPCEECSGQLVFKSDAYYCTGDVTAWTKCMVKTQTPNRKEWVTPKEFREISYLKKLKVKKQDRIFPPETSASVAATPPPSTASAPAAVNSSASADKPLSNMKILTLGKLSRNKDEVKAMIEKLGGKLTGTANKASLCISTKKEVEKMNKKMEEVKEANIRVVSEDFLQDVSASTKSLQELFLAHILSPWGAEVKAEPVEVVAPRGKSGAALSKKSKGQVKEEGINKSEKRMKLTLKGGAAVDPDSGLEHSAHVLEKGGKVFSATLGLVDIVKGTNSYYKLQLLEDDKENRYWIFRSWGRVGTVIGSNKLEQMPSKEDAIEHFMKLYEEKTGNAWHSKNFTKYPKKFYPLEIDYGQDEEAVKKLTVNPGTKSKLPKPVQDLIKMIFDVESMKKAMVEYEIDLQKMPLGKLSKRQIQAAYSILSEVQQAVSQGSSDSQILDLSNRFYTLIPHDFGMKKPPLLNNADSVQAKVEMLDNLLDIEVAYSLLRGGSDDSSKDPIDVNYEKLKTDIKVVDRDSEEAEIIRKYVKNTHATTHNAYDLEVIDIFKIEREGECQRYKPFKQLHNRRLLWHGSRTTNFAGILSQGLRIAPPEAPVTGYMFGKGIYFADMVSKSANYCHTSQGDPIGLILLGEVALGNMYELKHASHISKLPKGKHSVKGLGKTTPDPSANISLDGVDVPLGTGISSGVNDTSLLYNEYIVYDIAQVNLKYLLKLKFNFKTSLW
Sequence of GST-tagged Tnks-2 (873-1166 aa) (Q9H2K2 873-1166): as the sequence (Q9H2K2 873-1166) above

Consider `O=c1[nH]c(-c2ccc3c(c2)OCO3)nc2ccccc12`, for which the cellular assay entry in assay [1] is recorded as “no effect”.

Regarding `CC(C)c1ccc(-c2nc3ccc(F)cc3c(=O)[nH]2)cc1` [Compound A22, 6-fluoro-2-(4-isopropyl-phenyl)-3H-quinazolin-4-one], the IC50 in [2] and in assay [3] was 300 to 3000 nM throughout.

Take `Cc1cccc2c(=O)[nH]c(-c3ccc(C(C)(C)O)cc3)nc12` [Compound A24, 2-[4-(1-hydroxy-1-methyl-ethyl)-phenyl]-8-methyl-3H-quinazolin-4-one]: the IC50 in [2], in [4] and in assay [5] (read-out: IC50 TNKS1 ELISA) was under 300 nM throughout.

Take `Cc1cc(F)cc2c(=O)[nH]c(-c3ccc(C(C)(C)O)cc3)nc12` [Compound A25, 6-fluoro-2-[4-(1-hydroxy-1-methyl-ethyl)-phenyl]-8-methyl-3H-quinazolin-4-one]: the IC50 in assay [2], in assay [4] and in [5] (read-out: IC50 TNKS1 ELISA) was under 300 nM in each case.

Turning to `Cc1cc(F)cc2c(=O)[nH]c(-c3ccc(N4CCN(C)CC4)cc3)nc12` [Compound A28, 6-fluoro-8-methyl-2-[4-(4-methyl-piperazin-1-yl)-phenyl]-3H-quinazolin-4-one], the IC50 is 300 to 3000 nM in assay [2], under 300 nM in assay [4] and under 300 nM in assay [5] (read-out: IC50 TNKS1 ELISA).

As to `Cc1cc(F)cc2c(=O)[nH]c(-c3ccc(N4CCS(=O)(=O)CC4)cc3)nc12` [Compound A30, 2-[4-(1,1-dioxo-1|6-thiomorpholin-4-yl)-phenyl]-6-fluoro-8-methyl-3H-quinazolin-4-one], the IC50 in assay [2] was 300 to 3000 nM; in [3] it was 300 to 3000 nM; in [4] it was 300 to 3000 nM; in assay [5], under 300 nM; in assay [7] it was under 300 nM. Further, the EC50 in assay [6] was under 300 nM.

Consider `Cc1cc(F)cc2c(=O)[nH]c(-c3ccc(N4CCCN(C)CC4)cc3)nc12` [Compound A32, 6-fluoro-8-methyl-2-[4-(4-methyl-[1,4]diazepan-1-yl)-phenyl]-3H-quinazolin-4-one], for which the IC50 in assay [2] and in assay [3] was 300 to 3000 nM in each case. In assay [6], the EC50 lay in the range of 300 to 3000 nM.

Consider `Cc1cc(F)cc2c(=O)[nH]c(-c3ccc(C4CCNCC4)cc3)nc12` [Compound A33, 6-fluoro-8-methyl-2-(4-piperidin-4-yl-phenyl)-3H-quinazolin-4-one hydrochloride], for which the IC50 in assay [2] is under 300 nM; in assay [4], 300 to 3000 nM; in assay [5], under 300 nM.

With `Oc1nc(-c2ccc(C(F)(F)F)cc2)nc2c1CSCC2` [XAV939], in [8], the “growth of DLD-1-cancer cells” value is “inhibits growth”. Besides, in assay [9], the “Wnt-stimulated accumulation of β-catenin” value is reported as “blocked”.

For orientation: IC50 means the concentration that inhibits the measured activity by half.
